Patent US8940731B2, “Substituted pyridyl amide compounds as modulators of the histamine H3 receptor” (Janssen Pharmaceutica NV, priority 2006, dated 2015)
Where a name gives a salt, the structure may show the parent alone. Read-outs that look alike come from different tables or passages of the source.

Experiments:
human H3 receptor = target: T1, human H3 receptor (Homo sapiens, UniProt Q9Y5N1); assay: Cyclic AMP Accumulation (human H3 receptor); format: cell-based
T1 construct: expressed in transfected cells; host or cells: SK-N-MC sublines with a reporter construct
T1 sequence (Q9Y5N1 whole entry): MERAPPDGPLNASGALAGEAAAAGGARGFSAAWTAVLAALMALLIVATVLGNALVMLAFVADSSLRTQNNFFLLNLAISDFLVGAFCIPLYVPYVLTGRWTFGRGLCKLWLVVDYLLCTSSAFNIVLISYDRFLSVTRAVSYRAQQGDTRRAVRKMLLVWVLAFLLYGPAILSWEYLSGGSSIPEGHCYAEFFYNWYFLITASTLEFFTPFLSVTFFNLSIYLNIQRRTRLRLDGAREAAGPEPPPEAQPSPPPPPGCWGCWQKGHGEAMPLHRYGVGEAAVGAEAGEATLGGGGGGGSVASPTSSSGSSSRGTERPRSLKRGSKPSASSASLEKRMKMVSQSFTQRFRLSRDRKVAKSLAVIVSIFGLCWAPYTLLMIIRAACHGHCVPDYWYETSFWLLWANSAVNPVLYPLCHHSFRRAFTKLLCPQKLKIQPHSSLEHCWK
Text: (§1) Sublines of SK-N-MC cells were created that expressed a reporter construct and either the human or rat H3 receptor.

[1] = target: T2, cloned human H3 receptors (Homo sapiens, UniProt Q9Y5N1); assay: H3 Receptor Binding (Human); conditions: cloned human H3 receptors stably expressed in SK-N-MC cells; average of the results obtained; read-out: Human H3 Ki
T2 construct: expressed in transfected cells
T2 sequence (Q9Y5N1 whole entry): as above
Method: H3 Receptor Binding (Human)
Binding of compounds to the cloned human H3 receptors, stably expressed in SK-N-MC cells, was performed as described by Barbier, A. J. et al. (Br. J. Pharmacol. 2004, 143(5), 649-661).

Rat H3 [2] = target: T3, Rat H3 (Rattus norvegicus, UniProt Q9QYN8); assay: H3 Receptor Binding (Rat); conditions: rat brain membranes without cerebellum, 0.8 nM N-[3H]-α-methylhistamine, 60 min at 25° C.; average of the results obtained
Method: H3 Receptor Binding (Rat)
A rat brain without cerebellum (Zivic Laboratories Inc., Pittsburgh, Pa.) was homogenized in 50 mM Tris-HCl/5 mM EDTA and centrifuged at 1,000 rpm for 5 min. The supernatant was removed and recentrifuged at 15,000 rpm for 30 min. Pellets were rehomogenized in 50 mM Tris/5 mM EDTA (pH 7.4). Membranes were incubated with 0.8 nM N-[^3H]-α-methylhistamine plus/minus test compounds for 60 min at 25° C. and harvested by rapid filtration over GF/C glass fiber filters (pretreated with 0.3% polyethylenimine) followed by four washes with buffer. Nonspecific binding was defined in the presence of 100 μM histamine.
Target sequence in this assay (Q9QYN8 1-397 isoform Q9QYN8-3): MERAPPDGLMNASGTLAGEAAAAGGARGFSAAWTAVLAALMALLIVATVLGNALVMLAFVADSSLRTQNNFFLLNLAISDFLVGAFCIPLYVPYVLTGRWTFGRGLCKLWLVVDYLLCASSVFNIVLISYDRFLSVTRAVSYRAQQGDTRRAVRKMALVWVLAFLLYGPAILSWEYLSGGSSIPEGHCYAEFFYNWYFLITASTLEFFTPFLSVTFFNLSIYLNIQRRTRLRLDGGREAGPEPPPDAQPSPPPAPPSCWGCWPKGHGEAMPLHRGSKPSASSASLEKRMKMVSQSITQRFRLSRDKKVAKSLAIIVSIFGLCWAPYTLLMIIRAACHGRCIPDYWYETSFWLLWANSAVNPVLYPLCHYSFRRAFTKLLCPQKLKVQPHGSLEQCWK

Rat H3 [3] = target: T3, Rat H3; assay: cell-based
Text: as §1
Target sequence in this assay (Q9QYN8 whole entry): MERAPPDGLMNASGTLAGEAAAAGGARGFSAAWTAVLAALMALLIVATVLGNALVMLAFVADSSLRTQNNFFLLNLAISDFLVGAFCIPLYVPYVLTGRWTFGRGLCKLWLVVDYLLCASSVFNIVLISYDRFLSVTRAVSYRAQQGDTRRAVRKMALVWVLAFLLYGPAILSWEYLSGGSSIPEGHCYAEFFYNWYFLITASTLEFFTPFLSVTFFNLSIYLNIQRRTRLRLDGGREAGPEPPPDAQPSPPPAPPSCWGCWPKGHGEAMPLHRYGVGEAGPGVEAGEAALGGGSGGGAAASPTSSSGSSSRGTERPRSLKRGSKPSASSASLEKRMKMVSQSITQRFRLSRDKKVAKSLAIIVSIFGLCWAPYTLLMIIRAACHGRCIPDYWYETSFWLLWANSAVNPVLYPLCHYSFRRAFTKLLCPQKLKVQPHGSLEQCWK

[4] = SK-N-MC subline expressing reporter construct and human H3 receptor, average, read-out: Human pA2 (converted)
[5] = SK-N-MC subline expressing reporter construct and rat H3 receptor, average, read-out: Rat pA2 (converted)
[6] = SK-N-MC subline expressing reporter construct and human H3 receptor, average
[7] = SK-N-MC subline expressing reporter construct and rat H3 receptor, average

Row | SMILES | Kb (human H3 receptor) | Ki [1] | Ki (Rat H3 [2]) | Kb (Rat H3 [3]) | Kb (human H3 receptor; [4]) | Kb (Rat H3 [3]; [5]) | Human pA2 (human H3 receptor; [6]) | Rat pA2 (Rat H3 [3]; [7])
1 | O=C(c1ccc(Oc2ccc(F)cc2F)nc1)N1CCCN(C2CCC2)CC1 [Example 30, (4-Cyclobutyl-[1,4]diazepan-1-yl)-[6-(2,4-difluoro-phenoxy)-pyridin-3-yl]-methanone] | 0.537 nM | 1 nM | 26 nM | 4.17 nM | – | – | – | –
2 | O=C(c1ccc(Oc2ccccc2Cl)nc1)N1CCCN(C2CCC2)CC1 [Example 73, [6-(2-Chloro-phenoxy)-Pyridin-3-yl]-(4-cyclobutyl-[1,4]diazepan-1-yl)-methanone] | – | 4 nM | – | – | 0.309 nM | 1.2 nM | – | –
3 | Cc1ccc(Oc2ccc(C(=O)N3CCCN(C4CCC4)CC3)cn2)cc1 [Example 104, (4-Cyclobutyl-[1,4]diazepan-1-yl)-(6-p-tolyloxy-pyridin-3-yl)-methanone] | 0.724 nM | 2 nM | – | 4.27 nM | – | – | – | –
4 | O=C(c1ccc(Oc2ccc(Cl)c(Cl)c2)nc1)N1CCCN(C2CCCC2)CC1 [Example 66, (4-Cyclopentyl-[1,4]diazepan-1-yl)-[6-(3,4-dichloro-phenoxy)-pyridin-3-yl]-methanone] | 1.12 nM | 1 nM | – | 11.5 nM | – | – | – | –
5 | O=C(c1ccc(Oc2ccc(F)cc2)nc1)N1CCN(C2CCCC2)CC1 [Example 74, (4-Cyclopentyl-piperazin-1-yl)-[6-(4-fluoro-phenoxy)-pyridin-3-yl]-methanone] | 8.91 nM | 7 nM | – | 36.3 nM | – | – | – | –
6 | O=C(c1ccc(Oc2cccc(Cl)c2)cn1)N1CCCN(C2CCC2)CC1 [Example 70, [5-(3-Chloro-phenoxy)-pyridin-2-yl]-(4-cyclobutyl-[1,4]diazepan-1-yl)-methanone trifluoroacetic acid salt] | – | 2 nM | – | – | – | 19.1 nM | 8.72 | –
7 | O=C(c1ccc(Oc2ccc(F)c(F)c2)nc1)N1CCCN(C2CCC2)CC1 [Example 26, (4-Cyclobutyl-[1,4]diazepan-1-yl)-[6-(3,4-difluoro-phenoxy)-pyridin-3-yl]-methanone] | 0.229 nM | 1 nM | 16 nM | 2.14 nM | – | – | – | –
8 | O=C(c1ccc(Sc2ccc(F)cc2)nc1)N1CCCN(C2CCC2)CC1 [Example 83, (4-Cyclobutyl-[1,4]diazepan-1-yl)-[6-(4-fluoro-phenylsulfanyl)-pyridin-3-yl]-methanone] | – | – | – | – | – | 3.24 nM | 9.48 | –
9 | O=C(c1ccc(Oc2ccc(Cl)cc2)nc1)N1CCCN(C2CCC2)CC1 [Example 25, [6-(4-Chloro-phenoxy)-pyridin-3-yl]-(4-cyclobutyl-[1,4]diazepan-1-yl)-methanone] | – | 1 nM | 25 nM | – | – | 3.8 nM | 9.22 | –
10 | O=C(c1ccc(Oc2ccc(F)cc2)nc1)N1CCCN(C2CCCC2)CC1 [Example 67, (4-Cyclopentyl-[1,4]diazepan-1-yl)-[6-(4-fluoro-phenoxy)-pyridin-3-yl]-methanone] | 1.35 nM | 2 nM | – | 6.76 nM | – | – | – | –
11 | O=C(c1ccc(Oc2cccc(F)c2)nc1)N1CCCN(C2CCC2)CC1 [Example 39, (4-Cyclobutyl-[1,4]diazepan-1-yl)-[6-(3-fluoro-phenoxy)-pyridin-3-yl]-methanone] | – | 1 nM | 21 nM | – | – | – | 9.40 | 8.38
12 | O=C(c1ccc(Oc2ccccc2F)nc1)N1CCCN(C2CCC2)CC1 [Example 29, (4-Cyclobutyl-[1,4]diazepan-1-yl)-[6-(2-fluoro-phenoxy)-pyridin-3-yl]-methanone] | 0.813 nM | 1 nM | 20 nM | 3.55 nM | – | – | – | –
13 | O=C(c1ccc(Oc2ccc(Cl)cc2)cn1)N1CCCN(C2CCC2)CC1 [Example 68, [5-(4-Chloro-phenoxy)-pyridin-2-yl]-(4-cyclobutyl-[1,4]diazepan-1-yl)-methanone trifluoroacetic acid salt] | – | 2 nM | – | – | – | 15.8 nM | 8.61 | –
14 | O=C(c1ccc(Oc2ccccc2)nc1)N1CCCN(C2CCCC2)CC1 [Example 65, (4-Cyclopentyl-[1,4]diazepan-1-yl)-(6-phenoxy-pyridin-3-yl)-methanone] | 1.15 nM | 2 nM | – | 0.661 nM | – | – | – | –
15 | N#Cc1nc(C(=O)N2CCCN(C3CC3)CC2)ccc1Oc1ccc(F)cc1 [Example 59, 6-(4-Cyclopropyl-[1,4]diazepane-1-carbonyl)-3-(4-fluoro-phenoxy)-pyridine-2-carbonitrile] | 3.09 nM | 3 nM | – | 26.9 nM | – | – | – | –
16 | N#Cc1nc(C(=O)N2CCCN(C3CC3)CC2)ccc1Oc1cccnc1 [Example 56, 6-(4-Cyclopropyl-[1,4]diazepane-1-carbonyl)-3-(pyridin-3-yloxy)-pyridine-2-carbonitrile hydrochloride salt] | 2.34 nM | 5 nM | 179 nM | 13.8 nM | – | – | – | –
17 | O=C(c1ccc(Oc2ccc(Cl)c(Cl)c2)cn1)N1CCCN(C2CCC2)CC1 [Example 51, (4-Cyclobutyl-[1,4]diazepan-1-yl)-[5-(3,4-dichloro-phenoxy)-pyridin-2-yl]-methanone trifluoroacetic acid salt] | 2.29 nM | 2 nM | 60 nM | 21.9 nM | – | – | – | –
18 | O=C(c1ccc(Oc2cccc(Cl)c2)nc1)N1CCCN(C2CCC2)CC1 [Example 24, [6-(3-Chloro-phenoxy)-pyridin-3-yl]-(4-cyclobutyl-[1,4]diazepan-1-yl)-methanone] | – | 1 nM | 15 nM | – | 0.708 nM | 4.37 nM | – | –
19 | O=C(c1ccc(Oc2ccc(Cl)c(Cl)c2)nc1)N1CCCN(C2CC2)CC1 [Example 9, (4-Cyclopropyl-[1,4]diazepan-1-yl)-[6-(3,4-dichloro-phenoxy)-pyridin-3-yl]-methanone] | 8.71 nM | 11 nM | 130 nM | 44.7 nM | – | – | – | –
20 | CSc1ccc(Oc2ccc(C(=O)N3CCCN(C4CCC4)CC3)cn2)cc1C [Example 40, (4-Cyclobutyl-[1,4]diazepan-1-yl)-[6-(3-methyl-4-methylsulfanyl-phenoxy)-pyridin-3-yl]-methanone] | 1.32 nM | 1 nM | 36 nM | 13.5 nM | – | – | – | –
21 | Cc1cc(Oc2ccc(C(=O)N3CCCN(C4CC4)CC3)cn2)ccc1Cl [Example 12, [6-(4-Chloro-3-methyl-phenoxy)-pyridin-3-yl]-(4-cyclopropyl-[1,4]diazepan-1-yl)-methanone] | 5.5 nM | 5 nM | 51 nM | – | – | – | – | –
22 | O=C(c1ccc(Sc2ccccc2)nc1)N1CCCN(C2CCC2)CC1 [Example 86, (4-Cyclobutyl-[1,4]diazepan-1-yl)-(6-phenylsulfanyl-pyridin-3-yl)-methanone] | – | 1 nM | – | – | – | 3.16 nM | 9.48 | –
23 | O=C(c1ccc(Oc2ccc(Cl)c(Cl)c2)nc1)N1CCCN(C2CCC2)CC1 [Example 14, (4-Cyclobutyl-[1,4]diazepan-1-yl)-[6-(3,4-dichloro-phenoxy)-pyridin-3-yl]-methanone] | – | 2 nM | 10 nM | – | – | – | 9.26 | 8.16
24 | N#Cc1nc(C(=O)N2CCCN(C3CC3)CC2)ccc1Oc1ccccc1F [Example 61, 6-(4-Cyclopropyl-[1,4]diazepane-1-carbonyl)-3-(2-fluoro-phenoxy)-pyridine-2-carbonitrile] | 3.63 nM | 6 nM | – | 32.4 nM | – | – | – | –
25 | Cc1ccccc1Oc1ccc(C(=O)N2CCCN(C3CCC3)CC2)cn1 [Example 102, (4-Cyclobutyl-[1,4]diazepan-1-yl)-(6-o-tolyloxy-pyridin-3-yl)-methanone] | 0.2 nM | 1 nM | 17 nM | 1.2 nM | – | – | – | –
26 | O=C(c1ccc(Oc2ccccc2F)nc1)N1CCCN(C2CC2)CC1 [Example 31, (4-Cyclopropyl-[1,4]diazepan-1-yl)-[6-(2-fluoro-phenoxy)-pyridin-3-yl]-methanone] | 2.4 nM | 4 nM | 39 nM | 7.59 nM | – | – | – | –
